The test system of assay [1] is Tamoxifen-resistant LCC2 cell. The experiment in a line: Antitumor activity against human Tamoxifen-resistant LCC2 cells xenografted in Balb/c nude mouse assessed as reduction in Ki67 positive cells at 2 mg/kg, ip administered every other day for 20 days by immunohistochemistry analysis. It is filed as functional, organism-based. The following applies: time 20.0 day. For orientation: A xenograft is tissue or cells of one species grown in another, often human tumour cells in immunodeficient mice.

Assay [2] concerns Estrogen receptor (Homo sapiens), P03372 [Y537S]. Kind of assay: Induction of ERalpha degradation in human T47D cells harboring ERalpha Y537S mutant at 0.5 to 5 uM incubated for 24 hrs by Western blot analysis. It counts as cell-based. The note with it: dose 0.5-5 µM.
Sequence of Estrogen receptor (Homo sapiens), P03372 [Y537S] (P03372 whole entry Y537S): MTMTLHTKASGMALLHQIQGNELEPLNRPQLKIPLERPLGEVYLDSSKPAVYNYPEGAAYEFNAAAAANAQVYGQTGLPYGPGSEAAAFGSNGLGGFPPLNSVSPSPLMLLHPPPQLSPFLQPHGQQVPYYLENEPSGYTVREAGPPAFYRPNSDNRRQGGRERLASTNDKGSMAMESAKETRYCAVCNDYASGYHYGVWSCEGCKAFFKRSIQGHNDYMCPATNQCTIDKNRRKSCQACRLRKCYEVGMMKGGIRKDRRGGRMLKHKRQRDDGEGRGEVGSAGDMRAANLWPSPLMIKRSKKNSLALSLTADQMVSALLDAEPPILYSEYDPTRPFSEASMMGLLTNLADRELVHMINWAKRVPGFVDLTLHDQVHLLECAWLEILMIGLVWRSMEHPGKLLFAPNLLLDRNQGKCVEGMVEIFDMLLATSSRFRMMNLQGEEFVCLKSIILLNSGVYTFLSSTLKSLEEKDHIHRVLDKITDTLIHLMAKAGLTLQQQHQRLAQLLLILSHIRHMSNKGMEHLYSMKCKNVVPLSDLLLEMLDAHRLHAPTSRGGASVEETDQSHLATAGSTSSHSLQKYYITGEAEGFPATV
Assay [3] in a line: Antitumor activity against human Tamoxifen-resistant LCC2 cells xenografted in Balb/c nude mouse assessed as tumor growth inhibition at 2 mg/kg, ip administered every other day for 20 days relative to control. The following applies: Tamoxifen-resistant LCC2 cell, 480 h, time 20 day, read-out: TGI. It counts as functional.
The target in a further assay is T1, Estrogen receptor (Homo sapiens, UniProt P03372).
T1 sequence (P03372 whole entry): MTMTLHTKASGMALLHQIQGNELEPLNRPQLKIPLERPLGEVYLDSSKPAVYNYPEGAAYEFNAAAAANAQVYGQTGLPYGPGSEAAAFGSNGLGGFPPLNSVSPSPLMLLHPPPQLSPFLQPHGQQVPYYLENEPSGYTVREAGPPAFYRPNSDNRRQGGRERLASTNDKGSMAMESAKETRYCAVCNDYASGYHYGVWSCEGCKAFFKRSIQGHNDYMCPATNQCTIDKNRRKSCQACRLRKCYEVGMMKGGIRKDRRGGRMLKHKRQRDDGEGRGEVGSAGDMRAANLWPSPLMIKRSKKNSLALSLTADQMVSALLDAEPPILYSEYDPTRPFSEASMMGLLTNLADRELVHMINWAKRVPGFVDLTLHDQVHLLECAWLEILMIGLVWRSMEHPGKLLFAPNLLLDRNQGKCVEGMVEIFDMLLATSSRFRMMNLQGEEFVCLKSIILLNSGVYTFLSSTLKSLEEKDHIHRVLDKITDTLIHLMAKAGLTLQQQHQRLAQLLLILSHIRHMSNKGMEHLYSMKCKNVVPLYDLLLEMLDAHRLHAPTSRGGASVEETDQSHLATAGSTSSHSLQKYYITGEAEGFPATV
The experiment in a line: Antagonist activity at ERalpha (unknown origin) expressed in HEK293T cells co-expressing ERbeta and ERE-luciferase reporter assessed as reduction in relative light unit incubated for 24 hrs by dual-luciferase reporter assay. It counts as cell-based. For orientation: A reporter such as luciferase makes a cellular process visible.

Another assay deals with LCC2. The experiment in a line: Induction of cell cycle arrest in human LCC2 cells assessed as accumulation of cells at G2/M phase incubated for 48 hrs by flow cytometry analysis. It counts as functional, cell-based. The note with it: dose 6-24 µM. On the technique in general: Flow cytometry measures light scatter and fluorescence of single cells or particles in a stream.

In assay [4] the target is T2, Estrogen receptor (Homo sapiens) (UniProt P03372).
T2 sequence (whole entry): T1 sequence (P03372 whole entry)
Kind of assay: Induction of ERalpha degradation in human MCF7 cells at 5 uM incubated for 24 hrs in the presence of MG-132 by Western blot analysis. It counts as cell-based.

The target of assay [5] is Estrogen receptor beta (Homo sapiens) (UniProt Q92731). Kind of assay: Binding affinity to human ERbeta assessed as relative binding affinity incubated under vibration for 1 min followed by 2 hrs incubation under dark condition by fluorescence polarization assay relative to estradiol. The note with it: time 121.0 min.
Sequence of Estrogen receptor beta (Homo sapiens) (Q92731 whole entry): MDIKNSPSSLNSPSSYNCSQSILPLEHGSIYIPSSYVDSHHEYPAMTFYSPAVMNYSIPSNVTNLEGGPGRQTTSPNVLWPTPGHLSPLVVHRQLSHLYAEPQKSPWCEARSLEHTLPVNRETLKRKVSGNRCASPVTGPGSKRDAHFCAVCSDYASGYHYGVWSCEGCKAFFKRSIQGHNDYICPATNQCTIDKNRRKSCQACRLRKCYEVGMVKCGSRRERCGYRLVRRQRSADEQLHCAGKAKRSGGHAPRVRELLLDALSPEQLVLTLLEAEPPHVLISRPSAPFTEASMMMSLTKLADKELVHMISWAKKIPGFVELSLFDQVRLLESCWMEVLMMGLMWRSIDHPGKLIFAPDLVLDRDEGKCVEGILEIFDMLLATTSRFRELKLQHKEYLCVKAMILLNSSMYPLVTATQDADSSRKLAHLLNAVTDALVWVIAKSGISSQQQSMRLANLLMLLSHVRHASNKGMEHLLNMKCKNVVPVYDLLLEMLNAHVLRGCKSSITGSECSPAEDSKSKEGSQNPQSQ
Assay [6] deals with Estrogen receptor (Homo sapiens), P03372 [D538G]. Kind of assay: Induction of ERalpha degradation in human T47D cells harboring ERalpha D538G mutant at 0.5 to 5 uM incubated for 24 hrs by Western blot analysis. It is filed as cell-based. The following applies: dose 0.5-5 µM.
Sequence of Estrogen receptor (Homo sapiens), P03372 [D538G] (P03372 whole entry D538G): as the sequence (P03372 whole entry Y537S) above, with S537Y, D538G counted along it
The next assay relates to Mus musculus. Kind of assay: In vivo induction of ERalpha degradation in BALB/c nude mouse xenografted with human tamoxifen-resistant LCC2 cells assessed as decrease in ERalpha expression in tumor at 2 mg/kg, ip administered every other day for 20 days by Western blot analysis. It is filed as functional, organism-based. The following applies: time 20.0 day.

Calls of active or inactive are those of the source. The calls are words filed in the database; no cut-off is given here.

Broadly, the IC50 is the concentration needed to halve the response being measured.

For the molecule `N#C[Se]CCCCCC(=O)Nc1ccc(C2=C(c3ccc(O)cc3)C3CC(S(=O)(=O)N(CC(F)(F)F)c4ccccc4F)C2O3)cc1` (centres undefined), the outcome (in assay [1]; in assay [2]; in assay [6]; in the assay on Mus musculus) was Active. The inhibition in vivo at 2 mg/kg in assay [3] stood at 51.4%. Moreover, the IC50 on Estrogen receptor is 56 nM. Also, the Activity entry in the assay on LCC2 was “Dose-Dependent Effect”. Besides, the result in assay [4] was inactive. Further, the RBA in [5] stood at 0.1%.

For the origin of these results see ChEMBL document CHEMBL5360672, “Identification of Novel Dual-Target Estrogen Receptor α Degraders with Tubulin Inhibitory Activity for the Treatment of Endocrine-Resistant Breast Cancer” (J Med Chem, 2023).
